# Reference: patent US20230143751A1, “Aromatic Compound And Use Thereof In Preparing Antineoplastic Drugs” (Shanghai Zheye Biotechnology Co. Ltd., priority 2020, published 2023)
# Read-outs that look alike come from different tables or passages of the source.
# Key:
# [1] = Safety test for repeated administration for 14 days in SD rats; assay type: in vivo; conditions: oral gavage once a day for 14 days, 50, 150, 400 mg/kg
# Description: Test samples: Compound 3-2, and Compound 3-6.
# Animal species and number: SD rat; 6 animals per group (half male and half female).
# (§1) Administration mode: oral administration by gavage.
# Animal grouping and administration dose: vehicle blank group, Compound 3-2 group (50 mg/kg, 150 mg/kg, 400 mg/kg), Compound 3-6 group (50 mg/kg, 150 mg/kg, 400 mg/kg).
# Administration frequency: once a day for 14 days.
# General clinical observations were performed 2 times a day (once in the morning and once in the afternoon) during the test period. Death, morbidity, respiration, secretions, feces, and diet, drinking situation and so on were observed, and the changes in body weight of the rats during the administration period were recorded. The contents of detailed clinical observation included but were not limited to behavioral activity, skin, coat, eyes, ears, nose, abdomen, external genitalia, anus, extremities, feet, and respiration. The animals in each group were euthanized at the end of administration period, and all animals were dissected and subjected to gross observation.
# MIA PaCa-2 cells = test: Cell proliferation activity of MIA PaCa-2 by CellTiter-Glo reagent; assay type: cell-based; conditions: for IC50: Homo sapiens, MIA PaCa-2
# Description: MIA PaCa-2 cells in exponential growth phase were digested with trypsin-EDTA, plated in a 96-well plate with 2000-3000 cells per well, and incubated overnight at 37° C. with 5% CO2. Mother solutions were prepared from the test compounds by using DMSO, subjected to gradient elution with DMEM growth medium, and then added into the 96-well plate and incubated in an incubator for 72 h at 37° C. with 5% CO2. After the incubation, CellTiter-Glo test reagent with an equal volume was added into each well and the obtained 96-well plate was incubated after shaking. The chemiluminescence values were determined by microplate reader, and the IC50 values of the test compounds inhibiting the proliferation of MIA PaCa-2 cells were fitted and calculated by GraphPad Prism software.
# The test method of inhibitory activity was the same as that in Test 2 in “Biological Tests” part.
# [2] = system: MIA PaCa-2-derived xenograft tumor; test: Pharmacodynamic effect study of MIA PaCa-2-derived xenograft tumor model (test 11); assay type: in vivo, nude mice; conditions: MIA PaCa-2 xenograft, 20 mg/kg i.g. QD×21 days
# Description: Animal species and number: Balb/c Nude; 6 animals per group.
# Test samples: Compound 3-2, and Compound TM-1.
# Test groups: blank solvent control group;
# Compound 3-2 (20 mg/kg, i.g., QD×21 days);
# Compound TM-1 (20 mg/kg, i.g., QD×21 days).
# Animal model establishment: MIA PaCa-2 tumor cells in logarithmic growth phase were cultured in vitro and collected, and inoculated subcutaneously into the right back of nude mice at a quantity of 5×10^6 cells/each. When the tumor volume reached 150-300 mm^3, the tumor-bearing nude mice were randomly grouped. Subsequently, the animals in each group were administered, and the day of the first administration was defined as day 1 of the test.
# Administration frequency: once a day.
# General state observation: observation time and frequency: once a day; observation indexes or contents: including but not limited to administration location, appearance and signs, general behavioral activities, mental status, death and other abnormal performance of the animals. The animals were euthanized at the end of the test.
# Tumor volume calculation: V=½×long diameter×short diameter^2 (mm^3).
# [3] = Analysis regarding therapeutic safety window; conditions: in vivo, oral, 5 days
# NCI-H358 cells = test: Cell proliferation activity of NCI-H358 by CellTiter-Glo reagent; assay type: cell-based; conditions: Homo sapiens, NCI-H358; test 8, method of test 3; read-out: IC50 of proliferation inhibitory activity of the compound on NCI-H358 cell line
# In short: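 NCI-H358 cells seeded at 2000–3000 per well and grown overnight at 37° C, 5% CO2 before compound exposure. Viability read by CellTiter-Glo luminescence; IC50 from curve fitting.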
# [4] = system: NCI-H358-derived xenograft tumor; test: Pharmacodynamics study of NCI-H358-derived xenograft tumor model, combination with Afatinib or Trametinib (test 10); assay type: in vivo, nude mice; conditions: i.g. QD×21 days, 3-2 10 mg/kg, Afatinib 10 mg/kg, Trametinib 0.1 mg/kg
# Description: Animal species and number: Balb/c Nude; 6 animals per group. Test samples: […] Test groups: blank solvent control group; […] NCI-H358 tumor cells in logarithmic growth phase were cultured in vitro and collected, and inoculated subcutaneously into the right back of nude mice at a quantity of 5×10^6 cells/each. When the tumor volume reached 150-300 mm^3, the tumor-bearing nude mice were randomly grouped. Subsequently, the animals in each group were administered, and the day of the first administration was defined as day 1 of the test. Administration frequency: once a day. General state observation: observation time and frequency: once a day; observation indexes or contents: including but not limited to administration location, appearance and signs, general behavioral activities, mental status, death and other abnormal performance of the animals. The animals were euthanized at the end of the test. Tumor volume calculation: V=½×long diameter×short diameter^2 (mm^3).
# [5] = Preliminary safety test, 5-day escalating oral dosing in Balb/c mice; assay type: in vivo
# Description: Test samples: Compound 3-2, Compound 3-6, Compound 3-12M, Compound 3-20, and Compound 4-8.
# Animal species and number: Balb/c; 6 animals per group (half male and half female).
# as §1
# Animal grouping and administration dose: vehicle blank group, Compound 3-2 group (200 mg/kg, 400 mg/kg, 800 mg/kg), Compound 3-6 group (200 mg/kg, 400 mg/kg, 800 mg/kg), Compound 3-12M group (200 mg/kg, 400 mg/kg, 800 mg/kg), Compound 3-20 group (200 mg/kg, 400 mg/kg, 800 mg/kg), Compound 4-8 group (200 mg/kg, 400 mg/kg, 800 mg/kg).
# Administration frequency: once a day for 5 days.
# General clinical observations were performed 2 times a day (once in the morning and once in the afternoon) during the test period. Death, morbidity, respiration, secretions, feces, and diet, drinking situation and so on were observed, and the changes in body weight of the mice during the administration period were recorded. The animals in each group were euthanized after the administration, and all animals were dissected and subjected to gross observation.
structure (smiles),measurement,setting,value
C=CC(=O)N1CCN(c2nc(=O)n(-c3c(C)ccnc3C(C)C)c3nc(-c4ccccc4C=C)c(Cl)cc23)[C@@H](C)C1 [Compound 3-2],"water and food intake, activity and body weight during the administration period (in words)",[1],no significant abnormality was showed
same,anti-cell proliferation activity against KRAS G12C mutant type cells MIA PaCa-2 (in words),"MIA PaCa-2 cells; 72 h, CellTiter-Glo",significant anti-cell proliferation activity
same,IC50,"MIA PaCa-2 cells; 72 h, CellTiter-Glo, read-out: IC50 value of cell proliferation inhibitory activity of the compound on MIA PaCa-2",< 50 nM
same,IC50,"MIA PaCa-2 cells; test 12, method of test 2, read-out: IC50 of proliferation inhibitory activity of the compound on MIA Paca-2 cell line",≤ 15 nM
same,proliferation inhibitory activity on MIA Paca-2 cell line compared with Compound TM-2 (in words),MIA PaCa-2 cells; test 12,remarkable better
same,Tumor inhibition rate (%),[2],+++ (“+++” represents a tumor inhibition rate of >140%)
same,therapeutic safety window: ratio of toxic dose to effective dose,[3],greater than 80
same,IC50,NCI-H358 cells,10 nM
same,Tumor inhibition rate (%),[4],++ (“++” represents a tumor inhibition rate of 130%˜200%)
same,MTD at 5 days,"[5]; both sexes, mouse, in vivo, oral gavage, 5 days, initially suggested, read-out: maximum tolerated dose",> 800 mg/kg
same,"water and food intake, activity and body weight during the administration period (in words)","[5]; oral gavage once a day for 5 days, 200 to 800 mg/kg",no significant abnormality was showed
